Measurements published in US9062078B2, “Substituted 7-azabicyles and their use as orexin receptor modulators” (priority 2013, dated 2015).
Where two headings read alike, the source gives them in different places.

Legend:
[1] = molecular target: human orexin 1 receptor (Homo sapiens (Human), UniProt O43613); experiment: Human orexin 1 receptor radioligand binding (competitive, [3H]-SB674042, CHO cell preparations)
[2] = molecular target: human orexin 2 receptor (Homo sapiens (Human), UniProt O43614); experiment: Human orexin 2 receptor radioligand binding (competitive, [3H]-EMPA, HEK293 cell preparations); details: human orexin 2 receptor, [3H]-EMPA competition binding; read-out: hOX2 Ki (nm)
Sequence of human orexin 2 receptor (O43614 whole entry): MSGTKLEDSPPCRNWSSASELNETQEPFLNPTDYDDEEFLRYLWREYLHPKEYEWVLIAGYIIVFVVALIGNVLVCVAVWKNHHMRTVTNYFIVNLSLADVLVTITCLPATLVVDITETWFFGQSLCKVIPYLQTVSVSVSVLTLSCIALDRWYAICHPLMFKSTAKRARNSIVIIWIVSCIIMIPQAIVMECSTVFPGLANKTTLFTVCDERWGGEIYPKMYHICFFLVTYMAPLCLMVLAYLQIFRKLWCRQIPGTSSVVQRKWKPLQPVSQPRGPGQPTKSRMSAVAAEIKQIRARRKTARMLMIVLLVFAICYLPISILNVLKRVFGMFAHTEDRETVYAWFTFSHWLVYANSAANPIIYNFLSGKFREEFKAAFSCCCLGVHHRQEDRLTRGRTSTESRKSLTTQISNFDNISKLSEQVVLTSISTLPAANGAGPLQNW

[3] = human orexin 1 receptor, [3H]-SB674042 competition binding, read-out: hOX1 Ki (nm)

Sequence of human orexin 1 receptor (O43613 whole entry): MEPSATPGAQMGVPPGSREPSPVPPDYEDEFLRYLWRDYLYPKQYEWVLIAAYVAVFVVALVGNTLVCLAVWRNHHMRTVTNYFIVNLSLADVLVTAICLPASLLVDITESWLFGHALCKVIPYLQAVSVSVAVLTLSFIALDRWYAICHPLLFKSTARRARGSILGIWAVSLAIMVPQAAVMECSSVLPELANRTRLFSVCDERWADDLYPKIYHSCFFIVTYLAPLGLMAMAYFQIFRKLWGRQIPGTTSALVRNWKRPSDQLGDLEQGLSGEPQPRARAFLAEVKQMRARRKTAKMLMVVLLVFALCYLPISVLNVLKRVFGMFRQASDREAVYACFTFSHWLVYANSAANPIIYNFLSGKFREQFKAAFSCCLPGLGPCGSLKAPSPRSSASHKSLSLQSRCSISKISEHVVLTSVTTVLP

| Compound | Ki [1, 3] | Ki [2] | Ki ([1]; hOX1 Ki (nm)) |
| --- | --- | --- | --- |
| O=C(c1c(F)cccc1-c1ncccn1)N1C2CCC1C(COc1ccc(F)cn1)C2 (racemic) [Example 31, (±)-(2-fluoro-6-(pyrimidin-2-yl)phenyl)(2-(((5-fluoropyridin-2-yl)oxy)methyl)-7-azabicyclo[2.2.1]heptan-7-yl)methanone] | 0.033 µM | 0.122 µM |  |
| O=C(c1cc(F)ccc1-c1ncccn1)N1C2CCC1C(COc1ccc(F)cn1)C2 (racemic) [Example 32, (±)-(5-fluoro-2-(pyrimidin-2-yl)phenyl)(2-(((5-fluoropyridin-2-yl)oxy)methyl)-7-azabicyclo[2.2.1]heptan-7-yl)methanone] |  | 0.123 µM | 0.021 µM |
| O=C(c1ccccc1-n1nccn1)N1C2CCC1C(COc1cnc3ccccc3n1)C2 (racemic) [Example 34, (±)-(2-(2H-1,2,3-triazol-2-yl)phenyl)(2-((quinoxalin-2-yloxy)methyl)-7-azabicyclo[2.2.1]heptan-7-yl)methanone] | 0.06 µM | 0.467 µM |  |
| Cc1ccc(-n2nccn2)c(C(=O)N2C3CCC2C(COc2cnc4ccccc4n2)C3)c1 (racemic) [Example 36, (±)-(5-methyl-2-(2H-1,2,3-triazol-2-yl)phenyl)(2-((quinoxalin-2-yloxy)methyl)-7-azabicyclo[2.2.1]heptan-7-yl)methanone] | 0.07 µM | 0.107 µM |  |
| O=C(c1cc(F)ccc1-n1nccn1)N1C2CCC1C(COc1cnc3ccccc3n1)C2 (racemic) [Example 37, (±)-(5-fluoro-2-(2H-1,2,3-triazol-2-yl)phenyl)(2-((quinoxalin-2-yloxy)methyl)-7-azabicyclo[2.2.1]heptan-7-yl)methanone] | 0.3 µM | 0.487 µM |  |
| Cc1ccc(-c2ncccn2)c(C(=O)N2C3CCC2C(COc2cnc4ccccc4n2)C3)c1 (racemic) [Example 38, (±)-(5-methyl-2-(pyrimidin-2-yl)phenyl)(2-((quinoxalin-2-yloxy)methyl)-7-azabicyclo[2.2.1]heptan-7-yl)methanone] |  | 0.383 µM | 0.12 µM |
| Cc1ccc(-n2nccn2)c(C(=O)N2C3CCC2C(COc2nc(C)cc(C)n2)C3)c1 (racemic) [Example 39, (±)-(2-(((4,6-dimethylpyrimidin-2-yl)oxy)methyl)-7-azabicyclo[2.2.1]heptan-7-yl)(5-methyl-2-(2H-1,2,3-triazol-2-yl)phenyl)methanone] |  | 0.027 µM | 0.029 µM |
| Cc1cc(C)nc(OCC2CC3CCC2N3C(=O)c2c(C)noc2-c2ccccc2)n1 (racemic) [Example 40, (±)-2-(((4,6-dimethylpyrimidin-2-yl)oxy)methyl)-7-azabicyclo[2.2.1]heptan-7-yl)(3-methyl-5-phenylisoxazol-4-yl)methanone] | 5 µM | 1.2 µM |  |
| CCOc1ccc2ccccc2c1C(=O)N1C2CCC1C(COc1nc(C)cc(C)n1)C2 (racemic) [Example 41, (±)-(2-(((4,6-dimethylpyrimidin-2-yl)oxy)methyl)-7-azabicyclo[2.2.1]heptan-7-yl)(2-ethoxynaphthalen-1-yl)methanone] | 0.035 µM | 0.022 µM |  |
| Cc1cc(C)nc(OCC2CC3CCC2N3C(=O)c2c(F)cccc2-c2ncccn2)n1 (racemic) [Example 43, (±)-(2-(((4,6-dimethylpyrimidin-2-yl)oxy)methyl)-7-azabicyclo[2.2.1]heptan-7-yl)(2-fluoro-6-(pyrimidin-2-yl)phenyl)methanone] | 0.222 µM | 0.092 µM |  |
| Cc1cc(C)nc(OCC2CC3CCC2N3C(=O)c2cc(F)ccc2-c2ncccn2)n1 (racemic) [Example 44, (±)-(2-(((4,6-dimethylpyrimidin-2-yl)oxy)methyl)-7-azabicyclo[2.2.1]heptan-7-yl)(5-fluoro-2-(pyrimidin-2-yl)phenyl)methanone] |  | 0.104 µM | 0.4 µM |
| Cc1ccc(-c2ncccn2)c(C(=O)N2C3CCC2C(COc2nc(C)cc(C)n2)C3)c1 (racemic) [Example 45, (±)-(2-(((4,6-dimethylpyrimidin-2-yl)oxy)methyl)-7-azabicyclo[2.2.1]heptan-7-yl)(5-methyl-2-(pyrimidin-2-yl)phenyl)methanone] | 0.079 µM | 0.059 µM |  |
